Laboratory results from patent US20220364989A1, “METHOD FOR MEASURING PHOTOTOXICITY OR PHOTOALLERGY AND REAGENT FOR USE THEREIN” (FUJIFILM Corporation, priority 2018, published 2022).
Structures can show the parent of a compound that is named as a salt. Where two headings read alike, the source gives them in different places.

Assays:
[1] = cited from earlier work
[2] = cited from earlier work; remark: listed apart in the source
[3] = NAC depletion under and without ultraviolet irradiation, HPLC with UV detection (281 nm); settings: for NAC Depletion (%) without light irradiation: 25° C. 24 hours light-shielded; for NAC Depletion (%) without light irradiation / NAC Depletion (%) under light irradiation: test substance solution 1 mmol/L; for NAC Depletion (%) under light irradiation: 2,000 μW/cm^2 for 1 hour then 25° C. 23 hours
[4] = NAL depletion under and without ultraviolet irradiation, HPLC with UV detection (281 nm); settings: for NAL Depletion (%) without light irradiation: 25° C. 24 hours light-shielded; for NAL Depletion (%) without light irradiation / NAL Depletion (%) under light irradiation: test substance solution 1 mmol/L; for NAL Depletion (%) under light irradiation: 2,000 μW/cm^2 for 1 hour then 25° C. 23 hours
[5] = NAC depletion under and without ultraviolet irradiation, HPLC with fluorescence detection (284 nm excitation, 333 nm fluorescence); settings: single compound
[6] = NAL depletion under and without ultraviolet irradiation, HPLC with fluorescence detection (284 nm excitation, 333 nm fluorescence); settings: single compound
[7] = Average score of NAC and NAL depletion and phototoxicity or photoallergy determination, fluorescence detection; settings: under light irradiation, single compound

## O=C(Nc1ccc(Br)cc1)c1cc(Br)cc(Br)c1O [No. 10, Tribromsalan]
[1]; in vivo
  In vivo phototoxicity: Positive
[2]; in vivo
  In vivo photoallergy: Positive

## CN1C(C(=O)Nc2ccccn2)=C(O)c2ccccc2S1(=O)=O [No. 8, Piroxicam]
[1]; literature classification
  In vivo phototoxicity: Positive
[2]; literature classification
  In vivo photoallergy: Positive

## Oc1ccc(Cl)cc1Sc1cc(Cl)ccc1O [No. 22, Fenticlor]
[2]; literature classification
  In vivo photoallergy: Positive

## COc1ccc2ccc(=O)oc2c1 [7-Methoxy coumarin]
[2]; literature classification
  In vivo photoallergy: Positive

## O=C1NC(=O)C(c2ccccc2)(c2ccccc2)N1 [No. 45, Phenytoin]
[1]; literature classification
  In vivo phototoxicity: Negative
[1]; reported in References 1 to 3
  In vivo phototoxicity: Negative
[2]; literature classification
  In vivo photoallergy: Negative
[2]; reported in References 1 and 2
  In vivo photoallergy: Negative

## CCCCCCCCCCCC(=O)[O-].[Na+] [compound 55, Sodium laurate]
[1]; in vivo
  In vivo phototoxicity: Negative
[2]; reported in References 1 and 2
  In vivo photoallergy: Negative

## O=C([O-])Cc1ccccc1Nc1c(Cl)cccc1Cl.[Na+] [compound 13]
[2]; reported in References 1 and 2
  In vivo photoallergy: Positive
[3]
  Difference in depletion (under light irradiation - without light irradiation) NAC (%): 99.4%
  NAC Depletion (%) without light irradiation: 0.6%
  NAC Depletion (%) under light irradiation: 100.0%
[4]
  NAL Depletion (%) without light irradiation: 0.0%
  NAL Depletion (%) under light irradiation: −4.1%
[5]
  Difference in depletion (under light irradiation - without light irradiation) NAC (%): 100.0%
[5]; without light irradiation
  NAC Depletion (%): 0.0%
[6]
  Difference in depletion (under light irradiation - without light irradiation) NAL (%): 0.0%
[6]; without light irradiation
  NAL Depletion (%): 0.0%

## CCCCCCCCCCCCCCCCO [No. 49, Cetyl alcohol]
[1]; literature classification
  In vivo phototoxicity: Negative
[2]; literature classification
  In vivo photoallergy: Negative

## CC(=O)c1c(C)c([N+](=O)[O-])c(C(C)(C)C)c([N+](=O)[O-])c1C [No. 33, Musk ketone]
[1]; literature classification
  In vivo phototoxicity: Positive
[2]; literature classification
  In vivo photoallergy: Negative

## CCCCCCCCCCCCCC(=O)OC(C)C [compound 52, Isopropyl myristate]
[1]; reported in References 1 to 3
  In vivo phototoxicity: Negative
[2]; reported in References 1 and 2
  In vivo photoallergy: Negative

## C=C[C@H]1CN2CC[C@H]1C[C@H]2[C@H](O)c1ccnc2ccc(OC)cc12.Cl.O.O [No. 15, Quinine HCl (2H2O), reference compound]
[5]; under light irradiation
  NAC Depletion (%): 99.8%
[6]; under light irradiation
  NAL Depletion (%): 0.7%

## CN(C)[C@@H]1C(=O)C(C(N)=O)=C(O)[C@@]2(O)C(=O)C3=C(O)c4c(O)cccc4[C@@](C)(O)[C@H]3C[C@@H]12 [No. 36, Tetracycline, reference compound]
[2]; literature classification
  In vivo photoallergy: Negative
[7]
  Average score (%): 64.3%
[5]; under light irradiation
  NAC Depletion (%): 100.0%
[6]; under light irradiation
  NAL Depletion (%): 28.6%

## CNc1ccccc1C(=O)OC [No. 32, Methyl-N-methylanthranilate]
[1]; literature classification
  In vivo phototoxicity: Positive
[2]; literature classification
  In vivo photoallergy: Negative

## Nc1ccc(S(N)(=O)=O)cc1 [No. 27, Sulfanilamide]
[2]; literature classification
  In vivo photoallergy: Positive

## COc1c(C(C)(C)C)cc([N+](=O)[O-])c(C)c1[N+](=O)[O-] [No. 17, Musk ambrette]
[1]; literature classification
  In vivo phototoxicity: Negative
[2]; literature classification
  In vivo photoallergy: Positive

## CCCCCCCCCCCC(=O)[O-].[Na+] [No. 55, Sodium laurate]
[2]; literature classification
  In vivo photoallergy: Negative

## CN(C)C1C(O)=C(C(N)=O)C(=O)C2(O)C(O)=C3C(=O)c4c(O)cccc4C(C)(O)C3CC12 (centres unmarked) [compound 36]
[2]; reported in References 1 and 2
  In vivo photoallergy: Negative
[3]
  NAC Depletion (%) without light irradiation: −59.4%
  NAC Depletion (%) under light irradiation: 44.6%
[4]
  Difference in depletion (under light irradiation - without light irradiation) NAL (%): 22.5%
  NAL Depletion (%) without light irradiation: 5.1%
  NAL Depletion (%) under light irradiation: 27.6%
[5]
  Difference in depletion (under light irradiation - without light irradiation) NAC (%): 43.4%
[5]; without light irradiation
  NAC Depletion (%): 56.6%
[6]
  Difference in depletion (under light irradiation - without light irradiation) NAL (%): 25.6%
[6]; without light irradiation
  NAL Depletion (%): 3.0%

## CCOc1ccc2c(C)cc(=O)oc2c1 [No. 29, 4-Methyl-7-ethoxycoumarin]
[2]; literature classification
  In vivo photoallergy: Positive

## Cc1ccc2oc(=O)ccc2c1 [No. 2, 6-Methylcoumarin]
[1]; literature classification
  In vivo phototoxicity: Positive
[2]; literature classification
  In vivo photoallergy: Positive

## c1ccc2nc3ccccc3cc2c1 [No. 34, Acridine]
[1]; literature classification
  In vivo phototoxicity: Positive
[2]; literature classification
  In vivo photoallergy: Negative

## CCn1cc(C(=O)O)c(=O)c2cc(F)c(N3CCNCC3)nc21 [No. 6, Enoxacin]
[1]; literature classification
  In vivo phototoxicity: Positive
[2]; literature classification
  In vivo photoallergy: Positive

## CCCCCCCCCCCCCC(=O)OC(C)C [No. 52, Isopropyl myristate]
[1]; literature classification
  In vivo phototoxicity: Negative
[2]; literature classification
  In vivo photoallergy: Negative

## c1ccc2nc3ccccc3cc2c1 [compound 34, Acridine]
[1]; reported in References 1 to 3
  In vivo phototoxicity: Positive
[2]; reported in References 1 and 2
  In vivo photoallergy: Negative

## CNc1ccccc1C(=O)OC [compound 32, Methyl-N-methylanthranilate]
[1]; reported in References 1 to 3
  In vivo phototoxicity: Positive
[2]; reported in References 1 and 2
  In vivo photoallergy: Negative

## c1ccc2cc3ccccc3cc2c1 [compound 35, Anthracene]
[1]; reported in References 1 to 3
  In vivo phototoxicity: Positive
[2]; reported in References 1 and 2
  In vivo photoallergy: Negative

## COc1ccc2ccc(=O)oc2c1 [compound 30, 7-Methoxycoumarin]
[2]; reported in References 1 and 2
  In vivo photoallergy: Positive

## O=C(Nc1ccc(Cl)cc1)Nc1ccc(Cl)c(Cl)c1 [No. 20, Triclocarban]
[1]; literature classification
  In vivo phototoxicity: Negative
[2]; literature classification
  In vivo photoallergy: Positive

## Nc1ccc(N)cc1 [No. 11, p-Phenylenediamine]
[2]; literature classification
  In vivo photoallergy: Positive

## C=CC1CN2CCC1CC2C(O)c1ccnc2ccc(OC)cc12.Cl.O.O (centres unmarked) [compound 15]
[3]
  Difference in depletion (under light irradiation - without light irradiation) NAC (%): 98.9%
  NAC Depletion (%) without light irradiation: 1.1%
  NAC Depletion (%) under light irradiation: 100.0%
[4]
  Difference in depletion (under light irradiation - without light irradiation) NAL (%): 4.1%
  NAL Depletion (%) without light irradiation: 0.0%
  NAL Depletion (%) under light irradiation: 4.1%
[5]
  Difference in depletion (under light irradiation - without light irradiation) NAC (%): 98.8%
[5]; without light irradiation
  NAC Depletion (%): 1.0%
[6]
  Difference in depletion (under light irradiation - without light irradiation) NAL (%): 0.7%
[6]; without light irradiation
  NAL Depletion (%): 0.0%

## [Na+].[O-]n1ccccc1=S [No. 26, Omadine (Na salt)]
[2]; in vivo
  In vivo photoallergy: Positive

## CC(CN1c2ccccc2Sc2ccccc21)N(C)C (centres unmarked) [No. 14, Promethazine HCl]
[1]; literature classification
  In vivo phototoxicity: Positive
[2]; literature classification
  In vivo photoallergy: Positive

## OCC(O)CO [No. 51, Glycerine]
[1]; literature classification
  In vivo phototoxicity: Negative

## c1ccc2cc3ccccc3cc2c1 [No. 35, Anthracene]
[1]; literature classification
  In vivo phototoxicity: Positive
[2]; literature classification
  In vivo photoallergy: Negative

## CC(C)OC(=O)C(C)(C)Oc1ccc(C(=O)c2ccc(Cl)cc2)cc1 [No. 38, Fenofibrate]
[1]; literature classification
  In vivo phototoxicity: Positive

## O=C([O-])Cc1ccccc1Nc1c(Cl)cccc1Cl.[Na+] [No. 13, Diclofenac Na, reference compound]
[2]; literature classification
  In vivo photoallergy: Positive
[5]; under light irradiation
  NAC Depletion (%): 100.0%
[6]; under light irradiation
  NAL Depletion (%): 0.0%

## CCCCCCCCCCCCOS(=O)(=O)[O-].[Na+] [compound 56, Sodium lauryl sulfate]
[1]; in vivo
  In vivo phototoxicity: Negative

## CC(=O)Oc1ccccc1C(=O)O [No. 40, Aspirin]
[1]; literature classification
  In vivo phototoxicity: Negative
[2]; literature classification
  In vivo photoallergy: Negative

## Oc1c(Cl)cc(Cl)cc1Sc1cc(Cl)cc(Cl)c1O [No. 5, Bithionol]
[1]; literature classification
  In vivo phototoxicity: Positive
[2]; literature classification
  In vivo photoallergy: Positive

## Nc1ccc(N)cc1 [compound 11, p-Phenylenediamine]
[1]; in vivo
  In vivo phototoxicity: Positive
[2]; reported in References 1 and 2
  In vivo photoallergy: Positive

## CC(O)C(=O)O (centres unmarked) [No. 59, Lactic acid]
[2]; literature classification
  In vivo photoallergy: Negative

## COC(=O)c1ccccc1O [compound 43, Methyl salicylate]
[1]; reported in References 1 to 3
  In vivo phototoxicity: Negative
[2]; reported in References 1 and 2
  In vivo photoallergy: Negative

## CCOC(=O)c1ccc(N)cc1 [No. 41, Benzocaine]
[1]; literature classification
  In vivo phototoxicity: Negative
[2]; literature classification
  In vivo photoallergy: Negative

## NNC(=O)c1ccncc1 [No. 25, Isoniazid]
[2]; literature classification
  In vivo photoallergy: Positive

## O=C(c1ccccc1)c1ccccc1 [No. 4, Benzophenone]
[2]; in vivo
  In vivo photoallergy: Positive

## NS(=O)(=O)c1cc2c(cc1Cl)NCNS2(=O)=O [No. 24, Hydrochlorothiazide]
[2]; literature classification
  In vivo photoallergy: Positive
